# Data: patent US20060171945A1, “Ip receptor antagonists for the treatment of pathological uterine conditions” (priority 2003, published 2006)
# Values joined by “and” are separate entries in the source; they are usually repeats but may differ in a detail not shown here. Equal entries are not always repeated.
# Columns and labels:
# [1] = tested on: EP4; conditions: 10 μM; cited from earlier work
# [2] = tested on: TP; conditions: 10 μM; cited from earlier work
# [3] = tested on: FP receptor; conditions: cited from earlier work
# [4] = tested on: DP; conditions: 10 μM; cited from earlier work
# [5] = target: EP2 (Homo sapiens, UniProt P43116); conditions: 10 μM; cited from earlier work
# Sequence of EP2 (P43116 whole entry): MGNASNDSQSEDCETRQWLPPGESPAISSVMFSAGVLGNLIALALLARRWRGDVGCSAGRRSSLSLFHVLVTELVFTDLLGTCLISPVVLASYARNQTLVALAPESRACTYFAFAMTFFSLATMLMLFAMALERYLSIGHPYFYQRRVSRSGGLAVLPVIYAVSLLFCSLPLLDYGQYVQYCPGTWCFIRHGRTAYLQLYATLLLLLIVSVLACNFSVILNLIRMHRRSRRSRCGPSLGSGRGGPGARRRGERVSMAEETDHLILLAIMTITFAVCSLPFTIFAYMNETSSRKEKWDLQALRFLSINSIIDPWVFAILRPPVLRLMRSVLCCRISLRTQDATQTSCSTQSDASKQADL
# [6] = target: T1, COX-2 (Homo sapiens, UniProt P35354); conditions: cited from earlier work
# T1 sequence (P35354 18-604): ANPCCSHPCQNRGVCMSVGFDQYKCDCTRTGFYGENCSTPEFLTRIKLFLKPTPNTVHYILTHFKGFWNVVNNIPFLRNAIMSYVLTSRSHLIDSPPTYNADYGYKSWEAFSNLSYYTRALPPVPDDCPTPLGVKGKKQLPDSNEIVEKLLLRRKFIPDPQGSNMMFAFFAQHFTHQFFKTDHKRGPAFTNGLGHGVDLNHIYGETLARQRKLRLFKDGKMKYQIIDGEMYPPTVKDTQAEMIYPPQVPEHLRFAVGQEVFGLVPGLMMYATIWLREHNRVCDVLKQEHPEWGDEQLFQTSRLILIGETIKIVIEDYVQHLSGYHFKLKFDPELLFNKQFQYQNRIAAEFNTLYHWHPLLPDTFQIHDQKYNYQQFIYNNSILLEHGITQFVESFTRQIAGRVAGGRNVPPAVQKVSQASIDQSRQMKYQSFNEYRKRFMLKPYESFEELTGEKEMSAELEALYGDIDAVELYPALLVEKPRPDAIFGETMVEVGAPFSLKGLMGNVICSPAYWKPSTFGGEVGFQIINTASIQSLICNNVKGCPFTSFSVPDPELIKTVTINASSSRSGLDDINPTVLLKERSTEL
# [7] = tested on: endometrial epithelial and stromal cells; conditions: previously reported; cited from earlier work
# [8] = target: T2, IP receptor (Homo sapiens, UniProt P43119); experiment: Cyclic AMP assay in Ishikawa cells; assay type: cell-based; conditions: 100 nM iloprost, 10 min, n=3, mean±SEM
# T2 construct: from tissue; host or cells: minced human endometrial biopsy tissue
# T2 sequence (P43119 whole entry): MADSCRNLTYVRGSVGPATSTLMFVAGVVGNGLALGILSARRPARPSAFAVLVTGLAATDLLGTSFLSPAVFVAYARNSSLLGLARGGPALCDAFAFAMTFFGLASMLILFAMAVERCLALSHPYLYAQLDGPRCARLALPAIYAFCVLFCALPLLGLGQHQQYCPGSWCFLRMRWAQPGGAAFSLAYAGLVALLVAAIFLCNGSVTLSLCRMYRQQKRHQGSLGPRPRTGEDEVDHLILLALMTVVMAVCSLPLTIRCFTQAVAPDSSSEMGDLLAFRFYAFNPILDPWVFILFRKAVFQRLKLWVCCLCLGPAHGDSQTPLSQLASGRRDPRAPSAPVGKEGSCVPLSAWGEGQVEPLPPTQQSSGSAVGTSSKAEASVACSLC
# Text: (§1) The Ishikawa endometrial epithelial cell line (Ishikawa cells) and endometrial stromal (ES) cells were propagated in DMEM F12 culture medium with glutamax (Invitrogen Ltd., Paisley, UK) supplemented with 10% foetal bovine serum (PAA Laboratories Ltd., Yeovil, UK). Endometrial stromal cells were a generous gift from Professor R W Kelly and they were derived from human endometrial biopsy tissue as described previously (Dunn et al (2002) J Clin Endocrinol Metab 87, 1898-1901). For cyclic AMP assay, cells were grown in 6 well plates to 70% confluence. They were starved overnight in serum free medium in the presence of indomethacin (3 μg/ml). Cells were then incubated in the same medium containing 1-methyl-3-isobutylxanthine at 37° C. for 30 minutes and treated with control medium or 100 nM iloprost for 10 minutes at 37° C. […] Data are presented as mean±SEM percentage increase in cAMP after treatment with iloprost, where the increase was calculated relative to the control samples. […] Proliferation was assessed using a colorimetric method, the CellTiter 96 Aqueous One Solution Cell Proliferation Assay (Promega, Southampton, UK) according to manufacturer's instructions. Twenty microlitres of the assay reagent (containing a tetrazolium compound, inner salt and an electron coupling reagent) were added to each well and samples were incubated at 37° C. for 2 hours and plates were read at 492 nm. […]
# [9] = tested on: endometrial stromal (ES) cells; experiment: Proliferation assay (CellTiter 96) in ES cells; assay type: cell-based, human; conditions: 100 nM iloprost, 24 hours, n=6, mean±SEM
# Text: as §1
# [10] = target: T2, IP receptor; experiment: Whole tissue cyclic AMP assay in endometrial biopsy tissue; assay type: cell-based; conditions: 100 nM iloprost, 10 min, n=4
# Procedure: Endometrial biopsies from across the menstrual cycle (n=8) were minced finely with scissors and divided into three portions. The tissue was incubated is overnight at 37° C. in a humidified 5% CO2 incubator in 2 ml RPMI (Sigma, UK) medium containing, 2 mmol” L-glutamine, 100 IU penicillin and 100 μg streptomycin and 3 μg/ml indomethacin (Sigma, Poole, UK). Following overnight incubation, the tissue was incubated in the same medium containing 1-methyl-3-isobutylxanthine (Sigma) at 37° C. for 30 min. It was then treated with control medium or 100 nM iloprost (a gift from Schering Health Care, Burgess Hill, UK) for 10 min. at 37° C. and lysed in 0.1M HCl and frozen until assayed. cAMP concentration was measured by ELISA (Biomol, Affiniti, Exeter, UK) according to the manufacturer's instructions and normalised to protein concentration determined by a modification of the method of Lowry (Bio-Rad, Hemel Hempstead, UK).
# [11] = tested on: Ishikawa endometrial epithelial cell line; experiment: Proliferation assay (CellTiter 96) in Ishikawa cells; assay type: cell-based, human; conditions: 100 nM iloprost, 24 hours, n=5, mean±SEM
# Text: as §1
# [12] = target: T2, IP receptor; experiment: Cyclic AMP assay in endometrial stromal (ES) cells; assay type: cell-based; conditions: 100 nM iloprost, 10 min, n=3, mean±SEM
# Text: as §1
# [13] = target: T3, PGES (Homo sapiens, UniProt O14684); conditions: read-out: IC50 for inhibition of PGES activity; cited from earlier work
# T3 sequence (O14684 1-152): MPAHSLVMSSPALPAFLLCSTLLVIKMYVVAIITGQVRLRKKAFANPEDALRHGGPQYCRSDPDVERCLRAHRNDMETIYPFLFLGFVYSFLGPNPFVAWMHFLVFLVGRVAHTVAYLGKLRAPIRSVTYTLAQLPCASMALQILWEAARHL
smiles,measurement,setting,value
"O=C(O)CCC/C=C\C[C@@H]1[C@@H](/C=C/[C@H](O)C2Cc3ccccc3C2)[C@@H](F)C[C@@H]1O [AL-8810, (5Z, 13E)-(9S, 11S,15R)-9,15-dihydroxy-11-fluoro-15-(2-indanyl)-16, 17, 18, 19, 20-pentanor-5,13-prostadienoic acid]",inhibition of functional responses of EP4 receptor,[1],not to significantly inhibit
same,inhibition of functional responses of TP receptor,[2],not to significantly inhibit
same,FP receptor antagonist potency,[3],micromolar potency
same,inhibition of functional responses of DP receptor,[4],not to significantly inhibit
same,inhibition of functional responses of EP2 receptor,[5],not to significantly inhibit
CS(=O)(=O)Nc1cc2c(cc1Sc1ccc(F)cc1F)C(=O)CC2 [L 475 L337],specificity for COX-2 inhibition over COX-1 inhibition,[6],500 fold
"CS(=O)(=O)Nc1ccc([N+](=O)[O-])cc1Oc1ccccc1 [Nimesulide, N-(4-nitro-2-phenoxyphenyl) methanesulfonamide]",specificity for COX-2 inhibition over COX-1 inhibition,[6],100 fold
CCCCC[C@H](O)/C=C/[C@H]1[C@H](O)CC(=O)[C@@H]1C/C=C\CCCC(=O)O [PGE2],increase in proliferation,[7],25%
CCCCC[C@H](O)/C=C/[C@@H]1[C@@H](C/C=C\CCCC(=O)O)[C@@H](O)C[C@H]1O [PGF2α],increase in proliferation,[7],31%
CC#CCC(C)[C@H](O)/C=C/[C@@H]1[C@H]2C/C(=C/CCCC(=O)O)C[C@H]2C[C@H]1O (stereo partly shown) [iloprost],"cAMP generation, of control values",[8],166%±27.6%
same,"proliferation, of control values",[9],112%±3.8%
same,fold increase in cAMP generation,[10]; samples from proliferative phase of the menstrual cycle,4.83±0.74 fold
same,fold increase in cAMP generation,[10]; samples from secretory phase of the menstrual cycle,2.07±0.38 fold and 2.07±0.39 fold
same,"proliferation, of control values",[11],109.4%±2.4%
same,"cAMP generation, of control values",[12],"37,936%±18,464%"
CCCCC/C=C\C\C=C/C=C/C=C/[C@@H](SC[C@H](NC(=O)CC[C@H](N)C(=O)O)C(=O)NCC(=O)O)[C@@H](O)CCCC(=O)O [leukotriene C4],IC50,[13],5 µM
CSc1ccc(/C=C2/C(C)=C(CC(=O)O)c3cc(F)ccc32)cc1 [sulindac sulphide],IC50,[13],80 µM
Cc1ccc(S(=O)(=O)NC(=O)NN2CCCCCC2)cc1 [tolazamide],FP receptor antagonist potency,[3],very weak antagonists
CCCCNC(=O)NS(=O)(=O)c1ccc(C)cc1 [tolbutamide],FP receptor antagonist potency,[3],very weak antagonists
